Assays:
Parkinsonian rats [1] = assay: Amphetamine-induced rotational behaviour of ESC-grafted Parkinsonian rats; format: in vivo, rat; settings: for improvement in amphetamine-induced rotations: pre-treated ESCs + peptide infusion
Description: (§1) Thirty-seven adult male Sprague Dawley rats (250-350 g; from ARC, Australia) were housed and treated according to the guidelines of the Australian and Howard Florey Institute animal ethics committee (07-030). Animals received unilateral stereotaxic injections of 6-OHDA into the substantia nigra pars compacta (SNpc) to create a complete lesion of the midbrain DA neurons, as previously described^29. Lesioned animals were selected for transplantation based on their response to amphetamine induced rotational behaviour as previously described^29. Animals making greater than 6 rotations/min (lesion greater than 80%) were selected for grafting.
(§2) Two days prior to grafting animals began cyclosporine-A immune suppression (10 mg/kg). Fourteen days post-lesioning selected animals (determined by behavioural rotations) were again anesthetized and stereotaxically injected with 1 μl of cell suspension at each of the 4 sites as previously described^29. Stereotaxic coordinates of 1st & 2nd Injection (from bregma): anterior 0.2 mm, lateral 3.0 mm, ventral 4.5 and 5.0 mm; 3rd & 4th Injection, anterior 1.0 mm, lateral 2.5 mm, ventral 4.5 and 5.0 mm; incisor bar 0 mm^57). ESCs were differentiated as outlined in FIG. 7a. In brief, ESC colonies were dissected away from the stromal feeder layer and dissociated using collagenase/dispase with agitation (700 μg/ml, Roche, for 20 min, 80 rpm). Cells were subsequently resuspended at a density of 3,000 cells/μl ready for grafting. Five rats received Sham injections (4 μl N2 media, 1 μl/site), 16 rats received a total of 12,000 ESCs (4×1 μl grafts) pre-treated with the Control peptide (of which 9 of these animals also received infusion of the Control peptide) and a further 16 rats received grafts pretreated with the Cripto blocking peptide (9 animals receiving infusion of the Cripto BP).
(§3) The peptide infusion was performed by implantation of a cannula into the striatum (Alzet brain infusion kit) connected to a subcutaneously placed osmotic minipump (Alzet) prefilled with either CP or Cripto BP. Implantation was performed at the same time as the cell grafting. Cannula coordinates: anterior 0.5 mm, lateral 1.5 mm, ventral 5.0 mm; incisor bar 0 mm^57. The osmotic pump was capable of continuously delivering the peptide over a 3 weeks period (75 μM, 0.25 μl/hr) upon which time the animals were briefly anaesthetized with isoflurane and the pump removed through a small incision over the scapular region.

ALK-4 receptor = molecular target: T1, ALK-4 receptor (Homo sapiens, UniProt P36896); assay: ELISA binding of ALK-4 receptor to plate-coated peptide; settings: peptide coated at 50 μM; ALK-4 50 to 200 ng/ml
T1 construct: the extracellular domain of ALK-4 receptor fused to human Fc (R&D Systems); purchased R&D Systems
T1 sequence (P36896 24-126 limits assumed): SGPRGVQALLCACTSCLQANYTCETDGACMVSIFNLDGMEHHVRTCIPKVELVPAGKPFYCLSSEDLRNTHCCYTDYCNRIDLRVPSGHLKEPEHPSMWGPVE
Experimental: To evaluate the binding of Cripto BP to either Cripto or ALK-4 receptor, BP or control peptides (CP; 50 μM) were coated on the surface of a 96-well microtiter plate and incubated over night at 4° C. Wells were washed five times with PBS Tween (PBT) and the aspecific sites blocked for 3 h at RT with 1% Bovine Serum Albumin (BSA) in PBS, 180 μL/well. Wells were washed as above, and the recombinant form of either ALK-4-humanFc chimeric receptor or Cripto protein in PBT were added at the indicated concentrations and incubated for 1 h at 37° C. followed by 1 hr at RT. After washing with PBT, to evaluate the binding of Cripto to 26-23-23, rabbit anti-Cripto IgG (6 μg/ml) were added to the plates and incubated 1 h at 37° C. and 1 hr at RT. After washing in PBT, a goat anti-rabbit […] (Santa Crutz) was added to the plate (0.3 μg/ml) and incubated 1 h at RT. Finally, the plate was developed as reported above. To evaluate the binding of ALK4 to 26-23-23, the extracellular domain of ALK-4 receptor fused to human Fc (R&D Systems) was added at the indicated concentrations and a goat anti-human Fc (Jackson ImmunoResearch; 1:1000) was used.

Parkinsonian rats [2] = assay: Tumor formation after ESC transplantation into striatum of 6-OHDA lesioned rats; format: in vivo, rat
Description: as §1, §2, §3
Eight weeks post grafting, rats were killed by an overdose of sodium pentobarbital (100 mg kg^−1 i.p.) and intracardially perfused as previously described^29. Brains were removed, post fixed for 1 hour, and then left overnight at 4° C. in 20% sucrose in PBS. The following day, 20 μm-thick coronal sections were cut serially through the striatum (12 series) and 50 μm through the SNpc and mounted directly onto chrome alum [K2Cr(SO4)2.12H2O] gelatinized slides.
One series of slides containing grafted striata was counterstained using 1% Neutral red to visualise the graft/tumor size and the gross morphology of the striatum.
Labeling was visualized by light or fluorescent illumination using an inverted microscope (DMIRB, Leica Microsystems, Wetzelar, Del., http://www.leica-microsystems.com) or upright microscope (Leica DMLB2). Images were acquired on a DC 350 FX camera (Leica). Area of grafts and tumors was calculated using Stereo Investigator software (MicroBrightField, Vt., USA).

wild-type EBs = assay: QRT-PCR of cardiac and neuronal markers in EBs; format: cell-based, mouse; settings: 25 μM peptide, 13 day-old EBs
Experimental: Total RNAs from 13 day-old EBs was extracted with TRIzol kit (Life Technologies Inc.) according to manufacturer's instructions. One microgram of total RNA was used for cDNA synthesis with SuperScript II reverse transcriptase (Life Technologies Inc.) and random hexamers. Quantitative Real time PCR was performed using SYBR Green PCR master mix (EuroClone), according to manufacturer's instructions. The primers used are described in Table S2.

C[S+]([O-])CCC(N)C(=O)N[C@@H](CSCc1ccccc1)C(=O)N[C@@H](CSCc1ccccc1)C(=O)N[C@@H](CCCCNC(=O)[C@H](CSCc1ccccc1)NC(=O)[C@H](CSCc1ccccc1)NC(=O)[C@@H](N)CC[S+](C)[O-])C(=O)N[C@@H](CCCCNC(=O)[C@H](CCCCNC(=O)[C@H](CSCc1ccccc1)NC(=O)[C@H](CSCc1ccccc1)NC(=O)[C@@H](N)CC[S+](C)[O-])NC(=O)[C@H](CSCc1ccccc1)NC(=O)[C@H](CSCc1ccccc1)NC(=O)[C@@H](N)CC[S+](C)[O-])C(=O)NCC(=O)O (some centres unmarked) [Cripto BP]
functional improvement in rotational behaviour compared to shams (Parkinsonian rats [1]; 12,000 ESCs pre-treated, without infusion): significant reductions in amphetamine induced rotational behaviour as early as week 2 post-grafting | improvement in amphetamine-induced rotations (Parkinsonian rats [1]): significantly improved functional recovery | improvement in amphetamine-induced rotations (Parkinsonian rats [1]; mean±SD): 69.6±8.4% | reduction in amphetamine induced rotational behaviour (Parkinsonian rats [1]; pre-treated ESCs without infusion, 8 weeks postgrafting, mean±SD): 66.2±8.4% | binding of ALK-4 receptor to immobilized peptide (ALK-4 receptor): not ALK-4 specifically recognized | tumor volume (Parkinsonian rats [2]; ESCs pre-treated with peptide + peptide infusion): 0.79 um^3×10^10 | tumor formation (rats with tumors) (Parkinsonian rats [2]; ESCs pre-treated with peptide, no infusion, 8 weeks): 42% | tumor volume (Parkinsonian rats [2]; ESCs pre-treated with peptide, no infusion, Mean±SEM): 1.09 um^3×10^10 | further reduction of tumor incidence by continual infusion into the striatum (Parkinsonian rats [2]; pre-treated ESCs + peptide infusion (75 μM, 0.25 μl/hr, 3 weeks)): 9% | animals with grafts without proliferating or undifferentiated cells (Parkinsonian rats [2]; range over pre-treatment without and with infusion): 58-67% | reduction of tumor formation compared to control peptide (Parkinsonian rats [2]; rat, in vivo): more than 50% | expression of cardiac specific marker MLc2v (wild-type EBs): reduced | expression of midbrain dopaminergic neuron markers (Pitx3, Wnt5a, Shh, TH, DAT) (wild-type EBs): showed expression of markers characteristic of developing midbrain dopaminergic neurons | expression of pan neuronal marker NFM (wild-type EBs): induced

Source: US20110028401A1, “CRIPTO BLOCKING MOLECULES AND THERAPEUTIC USES THEREOF” (CONSIGLIO NAZIONALE DELLE RICERCHE, priority 2009, published 2011)
